Measured values from PMC12028158, “Synthesis and In Vitro Evaluation of the Anticancer Effect of Novel Phosphonium Vindoline Derivatives” (International Journal of Molecular Sciences, 2025).
Read-outs that look alike come from different tables or passages of the source.

How the values were obtained:
Assay type in all cases: cell-based
HS 578T = test: NCI60 five-dose screen; settings: Homo sapiens, Hs-578T
HT29 [1] = test: NCI60 five-dose screen; settings: Homo sapiens, HT-29
BT-549 [2] = test: NCI60 five-dose screen; settings: Homo sapiens, BT-549
NCI-H460 = test: NCI60 five-dose screen; settings: Homo sapiens, NCI-H460
U251 = test: NCI60 one-dose screen; settings: Homo sapiens, U-251, read-out: Growth percent
MOLT-4 = test: NCI60 five-dose screen; settings: Homo sapiens, MOLT-4
MDA-MB-231/ATCC = test: NCI60 one-dose screen; settings: Homo sapiens, MDA-MB-231, read-out: Growth percent
EKVX = test: NCI60 one-dose screen; settings: Homo sapiens, read-out: Growth percent
CAKI-1 [3] = test: NCI60 five-dose screen; settings: Homo sapiens, CAKI-1
HOP-62 = test: NCI60 one-dose screen; settings: Homo sapiens, HOP-62, read-out: Growth percent
CAKI-1 [4] = test: NCI60 one-dose screen; settings: Homo sapiens, CAKI-1, read-out: Growth percent
SW-620 = test: NCI60 five-dose screen; settings: Homo sapiens, SW-620
786-0 = test: NCI60 five-dose screen; settings: Homo sapiens, 786-0
HCT-15 = test: NCI60 one-dose screen; settings: Homo sapiens, HCT-15, read-out: Growth percent
OVCAR-5 [5] = test: NCI60 one-dose screen; settings: Homo sapiens, OVCAR-5, read-out: Growth percent
ACHN = test: NCI60 one-dose screen; settings: Homo sapiens, read-out: Growth percent
RXF 393 [6] = test: NCI60 one-dose screen; settings: Homo sapiens, RXF 393, read-out: Growth percent
HL-60(TB) = test: NCI60 one-dose screen; settings: Homo sapiens, HL-60, read-out: Growth percent
A498 [7] = test: NCI60 one-dose screen; settings: Homo sapiens, A498, read-out: Growth percent
DU-145 [8] = test: NCI60 one-dose screen; settings: Homo sapiens, DU-145, read-out: Growth percent
HT29 [9] = test: NCI60 one-dose screen; settings: Homo sapiens, HT-29, read-out: Growth percent
HCC-2998 = test: NCI60 five-dose screen; settings: Homo sapiens, HCC 2998
Breast Cancer panel = test: NCI60 five-dose screen, panel mean; settings: Homo sapiens
BT-549 [10] = test: NCI60 one-dose screen; settings: Homo sapiens, BT-549, read-out: Growth percent
RPMI-8226 = test: NCI60 five-dose screen; settings: Homo sapiens, RPMI-8226
NCI/ADR-RES = test: NCI60 one-dose screen; settings: Homo sapiens, read-out: Growth percent
COLO 205 = test: NCI60 five-dose screen; settings: Homo sapiens, COLO 205
HCT-116 = test: NCI60 one-dose screen; settings: Homo sapiens, HCT-116, read-out: Growth percent
A498 [11] = test: NCI60 five-dose screen; settings: Homo sapiens, A498
UACC-62 = test: NCI60 five-dose screen; settings: Homo sapiens, UACC-62
PC-3 = test: NCI60 one-dose screen; settings: Homo sapiens, PC-3, read-out: Growth percent
LOX IMVI = test: NCI60 one-dose screen; settings: Homo sapiens, read-out: Growth percent
CCRF-CEM = test: NCI60 five-dose screen; settings: Homo sapiens
UO-31 = test: NCI60 one-dose screen; settings: Homo sapiens, UO-31, read-out: Growth percent
[12] = system: 60 human tumor cell lines (NCI60); test: NCI60 one-dose screen, overall mean; settings: for activity at 10 µM: Homo sapiens, 60 cell, read-out: Mean growth percent; for average reduction / average cell death: one-dose, 10 µM, average over cell lines
OVCAR-4 = test: NCI60 five-dose screen; settings: Homo sapiens, OVCAR-4
DU-145 [13] = test: NCI60 five-dose screen; settings: Homo sapiens, DU-145
T-47D = test: NCI60 one-dose screen; settings: Homo sapiens, T47D, read-out: Growth percent
MDA-MB-468 = test: NCI60 one-dose screen; settings: Homo sapiens, MDA-MB-468, read-out: Growth percent
NCI-H226 [14] = test: NCI60 five-dose screen; settings: Homo sapiens, NCI-H226
NCI-H226 [15] = test: NCI60 one-dose screen; settings: Homo sapiens, NCI-H226, read-out: Growth percent
OVCAR-3 = test: NCI60 one-dose screen; settings: Homo sapiens, OVCAR-3, read-out: Growth percent
HOP-92 = test: NCI60 five-dose screen; settings: Homo sapiens, HOP-92
OVCAR-5 [16] = test: NCI60 five-dose screen; settings: Homo sapiens, OVCAR-5
CNS Cancer panel = test: NCI60 five-dose screen, panel mean; settings: Homo sapiens
RXF 393 [17] = test: NCI60 five-dose screen; settings: Homo sapiens, RXF 393

Work on `CC[C@]12C=CCN3CC[C@@]4(c5ccc(OC)cc5N(C)[C@H]4[C@@](O)(C(=O)OC)[C@@H]1OC(=O)CCCC[P+](c1ccc(C)cc1)(c1ccc(C)cc1)c1ccc(C)cc1)[C@@H]32` [10a] yielded a GI50 (HS 578T) of 1200 nM, a GI50 (HT29 [1]) of 358 nM and a GI50 (BT-549 [2]) of 763 nM. The GI50 (NCI-H460) was 600 nM, the activity at 10 µM (U251) was -93.6% and the GI50 (MOLT-4) was 611 nM. For the same compound, the activity at 10 µM (MDA-MB-231/ATCC) was -97.2%, the activity at 10 µM (EKVX) was -93.8% and the GI50 (CAKI-1 [3]) was 7460 nM. It also gave an activity at 10 µM (HOP-62) of -84%, an activity at 10 µM (CAKI-1 [4]) of -95.2% and a GI50 (SW-620) of 761 nM. The GI50 (786-0) was 1640 nM, the activity at 10 µM (HCT-15) was -90.1% and the activity at 10 µM (OVCAR-5 [5]) was -96%. For the same compound, the activity at 10 µM (ACHN) was -99.3%, the activity at 10 µM (RXF 393 [6]) was -87.6% and the activity at 10 µM (HL-60(TB)) was -42.2%. For the same compound, the activity at 10 µM (A498 [7]) was -90.9%, the activity at 10 µM (DU-145 [8]) was -84.5% and the activity at 10 µM (HT29 [9]) was -81.8%. It also gave a GI50 (HCC-2998) of 520 nM, a GI50 (Breast Cancer panel; read-out: GI50 Mean) of 580 nM and an activity at 10 µM (BT-549 [10]) of -97%. It also gave a GI50 (RPMI-8226) of 283 nM, an activity at 10 µM (NCI/ADR-RES) of 71.8% and a GI50 (COLO 205) of 200 nM. It also gave an activity at 10 µM (HCT-116) of -93.5%, a GI50 (A498 [11]) of 2170 nM and a GI50 (UACC-62) of 705 nM. It also gave an activity at 10 µM (PC-3) of -73.2%, an activity at 10 µM (LOX IMVI) of -94.5% and a GI50 (CCRF-CEM) of 768 nM. For the same compound, the activity at 10 µM (UO-31) was -96%, the activity at 10 µM [12] was -78.7% and the “average reduction / average cell death” value [12] was “more than 70%”. For the same compound, the GI50 (OVCAR-4) was 1090 nM, the GI50 (DU-145 [13]) was 1150 nM and the activity at 10 µM (T-47D) was -64.5%. It also gave an activity at 10 µM (MDA-MB-468) of -92.5%, a GI50 (NCI-H226 [14]) of 1430 nM and an activity at 10 µM (NCI-H226 [15]) of -78.6%. The activity at 10 µM (OVCAR-3) was -77.1%, the GI50 (HOP-92) was 490 nM and the GI50 (OVCAR-5 [16]) was 1440 nM. It also gave a GI50 (CNS Cancer panel; read-out: GI50 Mean) of 1090 nM and a GI50 (RXF 393 [17]) of 468 nM.

Work on `CCC12C=CCN3CCC4(c5ccc(OC)cc5N(C)C4C(O)(C(=O)OC)C1OC(=O)CCC[P+](c1ccc(C)cc1)(c1ccc(C)cc1)c1ccc(C)cc1)C32` (stereo not shown) [9a] yielded a GI50 (HS 578T) of 344 nM, a GI50 (HT29 [1]) of 219 nM and a GI50 (BT-549 [2]) of 247 nM. The GI50 (NCI-H460) was 327 nM, the activity at 10 µM (U251) was -91.2% and the GI50 (MOLT-4) was 294 nM. The activity at 10 µM (MDA-MB-231/ATCC) was -94.8%, the activity at 10 µM (EKVX) was -94.7% and the GI50 (CAKI-1 [3]) was 1870 nM. It also gave an activity at 10 µM (HOP-62) of -81.6%, an activity at 10 µM (CAKI-1 [4]) of -95.3% and a GI50 (SW-620) of 434 nM. It also gave a GI50 (786-0) of 1060 nM, an activity at 10 µM (HCT-15) of -91% and an activity at 10 µM (OVCAR-5 [5]) of -95.9%. The activity at 10 µM (ACHN) was -97.8%, the activity at 10 µM (RXF 393 [6]) was -82.8% and the activity at 10 µM (HL-60(TB)) was -47.5%. For the same compound, the activity at 10 µM (A498 [7]) was -88.6%, the activity at 10 µM (DU-145 [8]) was -78.5% and the activity at 10 µM (HT29 [9]) was -80.7%. For the same compound, the GI50 (HCC-2998) was 415 nM, the GI50 (Breast Cancer panel; read-out: Mean GI50) was 270 nM and the activity at 10 µM (BT-549 [10]) was -96.9%. For the same compound, the GI50 (RPMI-8226) was 186 nM, the activity at 10 µM (NCI/ADR-RES) was 18.1% and the GI50 (COLO 205) was 176 nM. For the same compound, the activity at 10 µM (HCT-116) was -93.4%, the GI50 (A498 [11]) was 1630 nM and the GI50 (UACC-62) was 275 nM. For the same compound, the activity at 10 µM (PC-3) was -83.3%, the activity at 10 µM (LOX IMVI) was -89.3% and the GI50 (CCRF-CEM) was 359 nM. For the same compound, the activity at 10 µM (UO-31) was -97.4%, the activity at 10 µM [12] was -78.6% and the “average reduction / average cell death” value [12] was “more than 70%”. The GI50 (OVCAR-4) was 370 nM, the GI50 (DU-145 [13]) was 457 nM and the activity at 10 µM (T-47D) was -78.4%. The activity at 10 µM (MDA-MB-468) was -92.1%, the GI50 (NCI-H226 [14]) was 521 nM and the activity at 10 µM (NCI-H226 [15]) was -77.4%. For the same compound, the activity at 10 µM (OVCAR-3) was -61.9%, the GI50 (HOP-92) was 187 nM and the GI50 (OVCAR-5 [16]) was 331 nM. For the same compound, the GI50 (CNS Cancer panel; read-out: Mean GI50) was 360 nM and the GI50 (RXF 393 [17]) was 279 nM.
